The values that follow come from patent US20250333398A1, “MONOARYL AND HETARYL SUBSTITUTED INDAZOLES AND BENZIMIDAZOLES AS STING ANTAGONISTS AND THE USE THEREOF AS MEDICAMENT” (Boehringer Ingelheim International GmbH, priority 2024, published 2025).

One experiment concerns the target T1, human STING WT (R232).
T1 construct: purchased Cisbio 64BDSTGPEG
Kind of experiment: Human STING HTRF binding assay (competitive, Cisbio 64BDSTGPEG). Conditions: 6His tagged human STING WT R232, competition with STING ligand-d2. How it is done: Binders to human STING WT (R232) were identified using a competitive HTRF assay format (Cisbio 64BDSTGPEG), which uses d2-labeled STING ligand, a 6His tagged human STING protein, and an anti 6His Cryptate-labeled antibody. Compounds compete with the STING ligand-d2 and thereby prevents FRET from occurring, which can be measured by an EnVision™ reader (PerkinElmer).
Assay method: Compounds were delivered as 10 mM DMSO solution, serially diluted by an Agilent Bravo Workstation and transferred to the 384 well assay plate (Perkin Elmer #6005359) using a Cybiwell dispenser. Typically, 8 concentrations were used with the highest concentration at 10 μM or 1 μM in the final assay volume followed by ^˜1:5 dilution steps. DMSO concentration was set to 1% in the final assay volume. The 384 well assay plate contained 20 test compounds and DMSO in column 23 and 24. A cGAMP standard dilution row was prepared according to the manufacturer and transferred to each assay plate. After transfer of compound solution or dilution buffer for negative (high) and positive (low) controls, 5 μl of the human STING protein (cyclic binding domain (residues 138-379) of the WT R232 human version, fused to a 6 His tag at the Nter part; 1:50 dilution in detection buffer) were dispensed to all wells except of the positive control, which received detection buffer only. Plates were the centrifuged for 20 sec at 1000 rpm. After that, 10 μl of Anti-6His-Cryptate antibody/Sting ligand-d2 mix was added to all wells using a Multidrop combi dispenser, followed by another 20 sec/1000 rpm centrifugation step. After an incubation of the plates for 180 min at room temperature, […] at […] (HTRF ratio) was measured using an Envison Reader (PerkinElmer)
Data evaluation and calculation: For data evaluation and calculation, HTRF ratios were calibrated using the cGAMP standard curve. After that, the measurement of the low control was set as 0% control and the measurement of the high control was set as 100% control. The IC50 values were calculated using the standard 4 parameter logistic regression formula. Calculation: [y=(a−d)/(1+(x/c)^b)+d], a=low value, d=high value; x=conc M; c=IC50 M; b=slope;
(TR-FRET usually uses a lanthanide donor and a delayed reading to cut background.)

In the next experiment the test system is T2, STING.
T2 construct: from tissue; host or cells: human whole blood from healthy donors
Kind of experiment: Human whole blood assay (HWBA), cGAMP-stimulated IFNα2α production. The following applies: human whole blood stimulated by cGAMP. It counts as cell-based. As to the method: For the detection of STING inhibition in physiological environment human whole blood was stimulated by the cyclic dinucleotide cGAMP. Pathway activity was monitored by measuring the IFNα2α production.
Assay method: Compounds were delivered as 10 mM DMSO solution and serial diluted and transferred to the 96-well Cell culture Plate (Corning #3595), prefilled with 20 μl OptiMEM (Gibco #11058-021) in each well, using an Echo acoustic dispenser. Typically, 8 concentrations were used with the highest concentration at 10 μM in the final assay volume followed by ^˜1:5 dilution steps. DMSO concentration was set to 0.1% in the final assay volume. The 96 well assay plate contained 9 test compounds, a reference compound and DMSO in control wells.
Collection of human whole blood from 3 or more healthy donors (male or female, no medication for 7 days, exception contraceptive and thyroxine) as Na-citrate blood (e.g. 3.8% in Monovettes from Sarstedt) is conducted in parallel. Whole blood was kept at room temperature for a maximum of 3 hours after collection until use in the assay.
160 μl of the whole blood samples were transferred to each well of the 96-well assay plates filled with compound/OptiMEM. All assay plates are prepared as duplicates with blood from different donors. Blood plates were kept at room temperature for 60 minutes and continuous shaking with 450 rpm, covered with the lid, but not sealed.
A 10× cGAMP assay solution was diluted from a 2 mM stock solution in 1×HBSS immediately before use at room temperature. 20 μl of the 10× cGAMP/HBSS were added to all compound and all high control wells, whereas HBSS only was added to all low control wells.
After covering assay plates with aera seals and the lid, blood plates were kept at room temperature for 30 minutes and continuous shaking with 450 rpm, followed by an overnight incubation of 22 h at 37° C. in the incubator, without shaking.
For the detection of IFNα-2α in human plasma, the biotinylated capture antibody (Antibody set IFNA2, Meso Scale Diagnostics #B21VH-3, including coating and capture antibody) was diluted 1:17.5 in Diluent 100 (Meso Scale Diagnostics #R50AA-4, according to the manufacturer. U-Plex MSD GOLD 96-well Small Spot Streptavidin SECTOR Plates (Meso Scale Diagnostics #L45SA-5) were coated with 25 μl diluted capture antibody. Coated plates were incubated for 60 min at room temperature under continuous shaking at 700 rpm. MSD IFNα-2α plates were washed three times with 150 μl wash buffer (1×HBSS, 0.05% Tween).
After blocking the plates with 100 μl block solution/well (1×HBSS with 0.2% Tween, 2% BSA) for 60 min at room temperature and continuous shaking at 700 rpm, plates were emptied as dry as possible by dumping just before continuing with the human plasma. Whole Blood assay plates were centrifuged at 1600 rpm for 10 minutes. 25 μl of supernatant was transferred with a pipetting robotics from each whole blood plate to the corresponding IFNα-2α plate. Plates were sealed with microplate seals and kept at room temperature again under continuous shaking at 700 rpm for two hours. Next MSD IFNα-2α plates were washed three times with 150 μl wash buffer (1×HBSS, 0.05% Tween), before adding 25 μl MSD SULFO-TAG IFNα-2α Antibody solution (1:100 diluted in Diluent 3 (Meso Scale Diagnostics #R50AP-2) to each well of the plates. Afterwards plates were sealed with microplate seals and kept at room temperature again under continuous shaking at 700 rpm for two hours. Finally, MSD IFNα-2α plates were washed three times with 150 μl wash buffer (1×HBSS, 0.05% Tween). 150 μl 2× Read buffer was added to each well and plates were immediately measured with the MSD Sector S600 Reader using the vendor barcode.
Data evaluation and calculation: For data evaluation and calculation, % control calculation of each well was based on the mean of high (cGAMP stimulated control) and mean of low (unstimulated control) controls by using the following formula: […]

`Cn1nc(-n2cc3c(-c4nc(-c5ccc(P(C)(C)=O)cc5OC(F)(F)F)n(C)c4C4CC4)cccc3n2)cc1C(F)F` [Example 2, 4-{5-cyclopropyl-2-[4-(dimethylphosphoryl)-2-(trifluoromethoxy)phenyl]-1-methyl-1H-imidazol-4-yl}-2-[5-(difluoromethyl)-1-methyl-1H-pyrazol-3-yl]-2H-indazole]: the IC50 on human STING WT (R232) worked out at 0.0254 µM; in the experiment with STING, 0.21 µM.

On to `COc1nn(C)cc1-n1cc2c(-c3nc(-c4ccc(C(=O)N(C)C)cc4OC(F)(F)F)n(C)c3C3CC3)cccc2n1` [Example 3, 4-{5-cyclopropyl-4-[2-(3-methoxy-1-methyl-1H-pyrazol-4-yl)-2H-indazol-4-yl]-1-methyl-1H-imidazol-2-yl}-N,N-dimethyl-3-(trifluoromethoxy)benzamide], for which the IC50 amounted to 0.122 µM at human STING WT (R232) and 2.6 µM with STING.

Regarding `CCOc1nn(C)cc1-n1cc2c(-c3nc(-c4ccc(C(N)=O)cc4OC(F)(F)F)n(C)c3C3CC3)cccc2n1` [Example 4, 4-{5-cyclopropyl-4-[2-(3-ethoxy-1-methyl-1H-pyrazol-4-yl)-2H-indazol-4-yl]-1-methyl-1H-imidazol-2-yl}-3-(trifluoromethoxy)benzamide], the IC50 came to 0.0409 µM on human STING WT (R232) and 0.095 µM in the experiment on STING.

Turning to `COc1nn(C2CC2)cc1-n1cc2c(-c3nc(-c4ccc(C(N)=O)cc4OCC(F)F)n(C)c3C3CC3)cccc2n1` [Example 6, 4-{5-cyclopropyl-4-[2-(1-cyclopropyl-3-methoxy-1H-pyrazol-4-yl)-2H-indazol-4-yl]-1-methyl-1H-imidazol-2-yl}-3-(2,2-difluoroethoxy)benzamide], the IC50 at human STING WT (R232) stood at 0.016 µM; in the experiment with STING, 0.058 µM.

On to `CC[P@](C)(=O)c1ccc(-c2nc(-c3cccc4nn(-c5cc(C(F)F)n(C)n5)cc34)c(C3CC3)n2C)c(OC(F)(F)F)c1` [Example 7, 4-(5-cyclopropyl-2-{4-[(S)-ethyl(methyl)phosphoryl]-2-(trifluoromethoxy)phenyl}-1-methyl-1H-imidazol-4-yl)-2-[5-(difluoromethyl)-1-methyl-1H-pyrazol-3-yl]-2H-indazole], for which the results for the IC50 on human STING WT (R232) and in the experiment on STING were 0.0197 µM and 0.057 µM, respectively.

`Cn1nc(-n2cc3c(-c4nc(-c5ccc(C(N)=O)cc5OC(F)(F)F)n(C)c4C4CC4)cccc3n2)cc1C(F)(F)F` [Example 8, 4-(5-cyclopropyl-1-methyl-4-{2-[1-methyl-5-(trifluoromethyl)-1H-pyrazol-3-yl]-2H-indazol-4-yl}-1H-imidazol-2-yl)-3-(trifluoromethoxy)benzamide]: the IC50 at human STING WT (R232) came out at 0.0853 µM; in the experiment with STING, 0.08 µM.

For the molecule `COc1nn(C2CC2)cc1-n1cc2c(-c3nn(-c4ccc(P(C)(C)=O)cc4C)c(C)c3C(C)C)cccc2n1` [Example 9, 2-(1-cyclopropyl-3-methoxy-1H-pyrazol-4-yl)-4-{1-[4-(dimethylphosphoryl)-2-methylphenyl]-5-methyl-4-(propan-2-yl)-1H-pyrazol-3-yl}-2H-indazole], the IC50 at human STING WT (R232) is 0.0176 µM; with STING, 1.5 µM.

Take `CC[P@](C)(=O)c1ccc(-c2nc(-c3cccc4nn(-c5cc(C(F)(F)F)n(C)n5)cc34)c(C3CC3)n2C)c(OC(F)(F)F)c1` [Example 10, 4-(5-cyclopropyl-2-{4-[(S)-ethyl(methyl)phosphoryl]-2-(trifluoromethoxy)phenyl}-1-methyl-1H-imidazol-4-yl)-2-[1-methyl-5-(trifluoromethyl)-1H-pyrazol-3-yl]-2H-indazole]: the half-maximal inhibitory concentration (IC50) at human STING WT (R232) turned out to be 0.0319 µM; with STING, 0.078 µM.

As to `COc1nn(CC(C)(C)O)cc1-n1cc2c(-c3nc(-c4ccc(C(N)=O)cc4OC(F)(F)F)n(C)c3C3CC3)cccc2n1` [Example 11, 4-(5-cyclopropyl-4-{2-[1-(2-hydroxy-2-methylpropyl)-3-methoxy-1H-pyrazol-4-yl]-2H-indazol-4-yl}-1-methyl-1H-imidazol-2-yl)-3-(trifluoromethoxy)benzamide], the concentration for half-maximal inhibition (IC50) was 0.0423 µM at human STING WT (R232) and 0.88 µM with STING.

On to `COCc1cc(C(N)=O)ccc1-c1nc(-c2cccc3nn(-c4cn(C5CC5)nc4OC)cc23)c(C2CC2)n1C` [Example 12, 4-{5-cyclopropyl-4-[2-(1-cyclopropyl-3-methoxy-1H-pyrazol-4-yl)-2H-indazol-4-yl]-1-methyl-1H-imidazol-2-yl}-3-(methoxymethyl)benzamide], for which the half-maximal inhibitory concentration (IC50) was found to be 0.0096 µM on human STING WT (R232) and 0.84 µM in the experiment on STING.

In the case of `CC[P@@](C)(=O)c1ccc(-c2nc(-c3cccc4nn(-c5cn(C6CC6)nc5OC)cc34)c(C3CC3)n2C)c(OC(F)(F)F)c1` [Example 13, 4-(5-cyclopropyl-2-{4-[(R)-ethyl(methyl)phosphoryl]-2-(trifluoromethoxy)phenyl}-1-methyl-1H-imidazol-4-yl)-2-(1-cyclopropyl-3-methoxy-1H-pyrazol-4-yl)-2H-indazole], the IC50 came to 0.0189 µM at human STING WT (R232) and 0.038 µM in the experiment with STING.

Consider `CC[P@](C)(=O)c1ccc(-c2nc(-c3cccc4nn(-c5cn(C6CC6)nc5OC)cc34)c(C3CC3)n2C)c(OC(F)(F)F)c1` [Example 14, 4-(5-cyclopropyl-2-{4-[(S)-ethyl(methyl)phosphoryl]-2-(trifluoromethoxy)phenyl}-1-methyl-1H-imidazol-4-yl)-2-(1-cyclopropyl-3-methoxy-1H-pyrazol-4-yl)-2H-indazole], for which the IC50 turned out to be 0.00649 µM on human STING WT (R232) and 0.011 µM in the experiment with STING.

On to `COc1nn(C2CC2)cc1-n1cc2c(-c3nc(-c4ccc(C(=O)N(C)C)cc4OC(F)(F)F)n(C)c3C3CC3)cccc2n1` [Example 15, 4-{5-cyclopropyl-4-[2-(1-cyclopropyl-3-methoxy-1H-pyrazol-4-yl)-2H-indazol-4-yl]-1-methyl-1H-imidazol-2-yl}-N,N-dimethyl-3-(trifluoromethoxy)benzamide], for which the half-inhibitory concentration (IC50) at human STING WT (R232) worked out at 0.0329 µM; with STING it was 0.11 µM.

For the molecule `COc1nn(C2CC2)cc1-n1cc2c(-c3nc(-c4ccc(C(N)=O)cc4OC(F)(F)F)n(C)c3C3CC3)cccc2n1` [Example 16, 4-{5-cyclopropyl-4-[2-(1-cyclopropyl-3-methoxy-1H-pyrazol-4-yl)-2H-indazol-4-yl]-1-methyl-1H-imidazol-2-yl}-3-(trifluoromethoxy)benzamide], the values for the 50% inhibitory concentration (IC50) at human STING WT (R232) and in the experiment on STING were 0.0138 µM and 0.035 µM, respectively.

What is called IC50 is the concentration at which inhibition is half-maximal. Low readings indicate greater potency in that assay, high ones weaker potency in that assay.
